# Assay results taken from patent publication US20030165475A1, “Non-lethal methods for conditioning a recipient for bone marrow transplantation” (priority 1993, published 2003).
# Several values for one entry are separate records, joined by “and”; a condition that tells them apart may be missing. Equal entries are not always repeated. Where two headings read alike, the source gives them in different places.
# What was measured:
# CD8-KO mice = tested on: CD8-KO mice
# From the text: (§1) Three to five week old C57BL/10-Cd4^tml(CD4-KO;H2^b, n=5), C57BL/6J-CD4^tm/mak (CD4-KO; H2^b, n=15) CD57BL/6JCD8α^tm/mak (CD8-KO; H2^b, n=16), C57BL/6J (B6; H2^b, n=6), C57BL/6-6d4^tm/mak (CD4-KO) and C57BL/6-Cd8^tm/mak (CD8-KO)recipient mice, as well as three to five week old B10.BR/SgSnJ (B10.BR, H2^k) donor mice were purchased from the Jackson Laboratory (Bar Harbor, Me.). Knock-out mice were housed in a special pathogen-free barrier facility, while donor mice were housed in a conventional barrier animal facility. Mice were cared for according to National Institute of Health animal care guidelines.
# (§2) Bone marrow was prepared as previously described (Ildstad and Sachs, Nature, 307:168 (1984)). Briefly, B10.BR donor mice were euthanized and tibias and femurs harvested. Bone marrow was expelled from the bones with Media 199 (Gibco, Grand Island, N.Y.) containing 10 μg/ml Gentamicin (Gibco) (MEM). The cells were filtered through sterile nylon mesh with 100 μm pores, spun for minutes at 200×g and 4° C., and resuspended in MEM. A cell count was performed and the cells were diluted to a final concentration of 15×10^6 bone marrow cells per 1 ml of MEM.
# (§3) CD4-KO and CD8-KO mice were treated with TBI from a cesium source (Gamma-cell 40, Nordion, Ontario, Canada). Doses from 0 to 300 cGy were administered according to the experimental groups. Animals were transplanted with 1 ml MEM containing 15×10^6 B10.BR bone marrow cells via lateral tail vein injection within 4 hours after irradiation.
# (§4) Peripheral blood was obtained from the mice by tail-vein bleeding. The blood was collected in heparinized Eppendorf tubes 28 days, 3 months and 6 months after BMT. Fifty μl of whole blood were incubated for 7 minutes with 2 ml of lysing buffer (8.29 g of NH4Cl, 1.0 g of KHCO3 and 0.0372 g Na2EDTA in 1 liter H2O to lyse red blood cells. The cells were washed with 2 ml FACS medium (0.36 g NaHCO3, 1.0 g NaN3 and 1.0 g bovine serum albumin in 1 liter Hanks Balanced Salt Solution and spun at 200×g for 10 minutes at 4° C. After the supernatant was carefully decanted, cells were mixed with 10 μl diluted monoclonal antibodies (mAb; details discussed infra) and incubated for 30 minutes at 4° C. in the dark. The appropriate dilution for the use of the mAb was determined in titration experiments prior to use. After the incubation, the cells were washed twice with 2 ml of FACS medium and spun at 200×g for minutes at 4° C. Finally, the cells were fixed with 1% paraformaldehyde in PBS. The analyses were carried out on a FACS-Calibur (Becton Dickinson, Mountain View, Calif.) with CellQuest software (Becton Dickinson).
# (§5) PBL were stained with mAb specific for MHC Class I antigens of donor (FITC conjugated anti-H2K^k, 36-7-5, mouse IgG1) and recipient (PE-conjugated anti-H2K^b, AF6-88.5, mouse IgG2a) origin to determine the percentage of donor chimerism. Multi-lineage engraftment was assessed by staining with biotinylated anti-H2K^k (36-7-5, mouse IgG1), FITC-conjugated anti-H2K^b (AF6-88.5, mouse IgG2a) and PE-conjugated lineage markers 3 months after BMT. The biotinylated antibody was recovered with Streptavidin-Allophycocyanin (SA-APC). The following antibodies were used as lineage markers: anti-GR-1 (RB6-8C5, rat IgG2^b); anti-MAC-1 (M1/70, rat IgG2^b); anti-CD4 (RM4-5, rat IgG2a); anti-CD8α (53-6.7, rat IgG2a); anti-B220 (RA3-6B2, rat IgG2a); anti-NK1.1 (PK136, mouse IgG2a); anti-TCR-β chain (H57-597, hamster IgG); and anti-γδ-TCR (GL3, hamster IgG). Non-specific background staining was controlled for by using isotype control antibodies directed against irrelevant antigens and conjugated with the same color as the experimental antibody (i.e., anti-TNP mouse IgG2a conjugated with PE served as isotype control for PE-conjugated anti-H2K^b mouse IgG2a). All mAb were obtained from PharMingen (San Diego, Calif.). SA-APC was purchased from Becton Dickinson (Mountain View, Calif.).
# CD4-KO mice = conditions: 300 cGy TBI + 200 mg/kg CyP
# From the text: as §1, §2, §3, §4, §5
# C57BL/6J mice = conditions: C57BL/6J (n=6); 300 cGy TBI + 200 mg/kg CyP
# From the text: as §1, §2, §3, §4, §5
smiles,measurement,setting,value
"O=P1(N(CCCl)CCCl)NCCCO1 (stereo not drawn) [CyP, cyclophosphamide]",animals with donor chimerism,"CD8-KO mice; 200 mg/kg CyP alone without irradiation, 28 days after BMT",6 of 6 and Six of 6 and 6 out of 6
same,% animals that engrafted,"CD8-KO mice; C57BL/6-Cd8a tm/mak, 300 cGy TBI + 200 mg/kg CyP day 2",100%
same,level of donor chimerism,CD8-KO mice; CyP and 100 cGy TBI (n=6),11±0.4%
same,level of donor chimerism,CD8-KO mice; CyP and 200 cGy TBI (n=6),32.7±1.5%
same,average level of donor chimerism,CD8-KO mice; CyP and 300 cGy TBI (n=16),45.7%±2.5
same,CD4-KO mice that engrafted,CD4-KO mice; 15 C57BL/6-Cd4 tm/mak mice,None
same,% animals that engrafted,CD4-KO mice; C57BL/6-Cd4 tm/mak (n=15),0%
same,% animals that engrafted,CD4-KO mice; C57BL/10-Cd4 tml (n=5),0%
same,% animals that engrafted,C57BL/6J mice,0%
